The results in this text go back to a melting point compilation (Tetko et al.; mined from patent text by program, amines drawn as free bases though some values may be those of a salt).

The term melting point denotes the temperature, or range, at which the solid turns liquid.

In turn, `COc1cc2c(N3CCN(C(=O)Nc4ccc(Oc5ccccc5)cc4)CC3)ncnc2cc1OCc1ccccc1` returned a melting point of 220 to 221 °C.

Take `COc1cc(OC)nc(Oc2cccc3cc(C)oc(=O)c23)n1`: the melting point was in the range of 188 to 190 °C.

As for `Cn1c(N)c(C#N)c(Cl)c1C=O`, the melting point fell in the range of 282 to 285 °C.

The compound `CNc1nc2ccccc2n(-c2ccc(Cl)cc2)c1=O` had a melting point of 217 to 220 °C.

For the compound `CCCC12CCC3=C(CCc4cc(O)ccc43)C1=CCC2=O` (centres undefined), the melting point lay within 149 to 155 °C.

`N#Cc1ccc2[nH]c(C(=O)C34CC5CC(CC(C5)C3)C4)cc2c1` had a melting point of 250 to 252 °C.

Turning to `CC(C)NC(=NC(=O)OCc1ccccc1)N=C1NC(=O)C(=O)N1c1ccc(Cl)c(Cl)c1`, the melting point was 211 °C.

Regarding `Cc1ccc(NC(=O)C(C)(C)C)c(-c2cccc(-c3cc(C)ccc3NC(=O)C(C)(C)C)n2)c1`, the melting point is 181 to 184 °C.

`CCOC(=O)c1cnc2ccc3nc(Cl)sc3c2c1O` had a melting point greater than 300 °C.

`COc1ccc(-c2cc(NC(=O)CCCCBr)n[nH]2)cc1` displayed a melting point of 150 to 152 °C.

`C=C(CC)C(=O)c1cc2c(c(Cl)c1Cl)OC(C(=O)O)C2` (centres undefined) showed a melting point of 148 °C.

On to `O=C(NC(=O)c1c(F)cccc1F)Nc1cc(Cl)c(Oc2ccc(S(=O)(=O)c3ccc(Cl)cc3)cc2)c(Cl)c1`, for which the melting point lay in the range of 207 to 209 °C.

`Cc1nc(-c2ccc(C#N)cc2)sc1C(=O)N(CC(=O)O)[C@H](C)[C@](O)(Cn1cncn1)c1ccc(F)cc1F` returned a melting point of 153 to 159 °C.

For the compound `Cc1cc(SCN(O)CSc2cc(C)c(O)c(C(C)(C)C)c2)cc(C(C)(C)C)c1O`, the melting point lay within 115 to 118 °C.

As for `COc1ccccc1C(C)(O)c1ccccc1OC`, the melting point fell in the range of 122 to 123 °C.

`COC(=O)c1cc(F)c(F)c2c1NC(C)C2` (centres undefined) gave a melting point of 50 to 52 °C.

`CCCCc1noc(-c2ccc(C=CC(=O)NCC3CCCC3(C)C)cc2)n1` (centres undefined) gave a melting point of 144 to 145 °C.

`CC(=O)N1N=C(c2ccc([N+](=O)[O-])c(C)c2)c2cc3c(cc2CC1C(N)=O)OCO3` (centres undefined) displayed a melting point of 157 to 161 °C.

Consider `COc1ccc(OC(C)c2ccnc3ncnn23)cc1` (centres undefined), for which the melting point was in the range of 112 to 114 °C.

Compound `Cn1cc(C2=C(c3cn4c5c(cccc35)CCC4CCO)C(=O)NC2=O)c2ccccc21` (centres undefined) registered a melting point of 214 to 215 °C.

`O=C1c2ccccc2C(=O)N1OCCOCc1ccccc1F` had a melting point of 62 to 64 °C.

`O=c1[nH]c(=O)n(Cc2ccccc2)cc1C=NO` registered a melting point of 172 to 174 °C.

As to `Cn1ccnc1C(O)(c1ccc(Cl)cc1)c1ccc(Cl)cc1`, the melting point lay within 190 to 191 °C.

In turn, `COc1nn(-c2ccc(C=O)cc2)nc1Cl` gave a melting point of 147 to 148 °C.

For the compound `O=C(Nc1ccc(Br)c(C(F)(F)F)c1)c1ccccc1NCc1ccncc1`, the melting point lay within 123 to 124 °C.

In the case of `CC(=O)OC1CC2CCC3C(CCC4(C)C(C(C)=O)CCC34)C2(C)CC1Br` (centres undefined), the melting point was 142 to 146 °C.

With `CS(=O)c1csc(C(=O)O)c1` (centres undefined), the melting point lay in the range of 188 to 190 °C.

Take `C=CCCC(O)=C(C#N)C(=O)Nc1ccc(C(F)(F)F)c(C)c1`: the melting point came out at 133 °C.

The compound `CCCCCCCCCCCCCCCCOCCO` showed a melting point of 42 to 44 °C.

`CCCc1c(CSc2ncccc2OCC(=O)O)ccc(C(C)=O)c1O` showed a melting point of 157 °C.

The compound `CN(c1ccc(Cl)cc1)S(=O)(=O)c1cc(C(=O)Nc2ccc(S(C)=O)cc2)ccn1` (centres undefined) registered a melting point of 172 to 174 °C.

Regarding `Cc1c(SCc2ccco2)ccnc1CSc1nc2ccccc2n1CCN(C)C`, the melting point was in the range of 87 to 89 °C.

`COc1ccc(/C=C(\C#N)c2ccccc2Br)cc1OC1CCCC1` gave a melting point of 100 to 103 °C.

For the compound `CCNc1cccc(-c2ccnc3c(C(=O)c4ccccc4)cnn23)c1`, the melting point lay in the range of 98 to 99 °C.

Compound `Nc1cc(-c2c[nH]c3ncccc23)c2ccccc2n1` gave a melting point of 244 °C.

`CCCCc1c(Cl)ncnc1Cl` displayed a melting point of 62 to 63 °C.

For `Cc1ncn(Nc2ccccc2)c1C`, the melting point was found to be 178 °C.

`Cc1nn(C(=O)NCC2CC2(Cl)Cl)c(=O)n1N` (centres undefined) yielded a melting point of 149 °C.

`Brc1cn(C(c2ccccc2)(c2ccccc2)c2ccccc2)nc1-c1ccccc1` returned a melting point of 181 to 183 °C.

Consider `CCOC(=O)c1cc(OC(C)=O)c2c(c1)c1ccccc1n2C`, for which the melting point was 123 to 125 °C.

In turn, `CCCCCCCCCCCCN(c1nc(Cl)nc(Cl)n1)c1nc(Cl)nc(Cl)n1` showed a melting point of 50 to 53 °C.

`CC(=O)OCC1OC(n2cc(Cc3ccc4occc4c3)c3c(F)cccc32)C(OC(C)=O)C(OC(C)=O)C1OC(C)=O` (centres undefined) displayed a melting point of 184 to 185 °C.

The compound `O/N=C(/c1ccc(Cl)cc1)C1CC1` gave a melting point of 101 to 103 °C.

Consider `CON1C(=O)CC2(CCN(C(=O)OC(C)(C)C)CC2)C1=O`, for which the melting point was 117 °C.

`OCC(O)CN1CCN(c2ncccn2)CC1` (centres undefined) had a melting point of 118 to 120 °C.

On to `CN1CCN(C(=O)CCC(=O)N[C@@H]2CN3C(=O)N(c4cc(Cl)nc(Cl)c4)C(=O)[C@@]3(Cc3ccc(OC(F)(F)F)cc3)C2)CC1`, for which the melting point is 70 °C.

For the compound `CCOc1ccc2c(c1)n(C1CCCCC1)c(=O)n2Cc1ccc(N)cc1OC`, the melting point was determined as 191 °C.

As for `O=[N+]([O-])c1cc2nc(Cl)c(Cl)nc2cc1Sc1ncc[nH]1`, the melting point was greater than 300 °C.

`FC(F)(F)c1cccc(N2CCN(c3ccc(Cl)nn3)CC2)c1` showed a melting point of 149 °C.

Take `O=C1CN2C(=O)CCC2N1` (centres undefined): the melting point fell in the range of 155 to 157 °C.

In turn, `CCNC(=O)[C@H]1N(C(=O)[C@@H](O)[C@H](Cc2ccccc2)NC(=O)c2cc(C)cc(O)c2C)CC(F)(F)C1(C)C` registered a melting point of 208 to 214 °C.

`O=C(Nc1ccc(O)cc1)C(=O)N1CCC(Cc2ccc(F)cc2)CC1`: the melting point lay within 98 to 100 °C.

For `COc1c(N2CCN(C)CC2)c(F)cc2c(=O)c(C(=O)O)cn(C3CC3)c12`, the melting point fell in the range of 221 to 222 °C.

`COC(=O)Cn1c(C(=O)Nc2nc(-c3cc(OC)c(Cl)cc3OC)c(CCC3CCCCC3)s2)cc2cc(C)cc(C)c21`: the melting point is 193 to 195 °C.

`C[C@H](c1ccccc1)N1CC(=NO)C2(CCC2)C1=O` displayed a melting point of 203 to 208 °C.

As to `COc1cc(OCc2ccccn2)ccc1/C=C/c1cc(/C=C/c2c[nH]c3ccc(F)cc23)n[nH]1`, the melting point lay within 209 to 213 °C.

`COCCOC(=O)NC(=O)CCCCCN=C=O` registered a melting point of 77 °C.

Compound `CCOC(=O)c1cc2cccc(NS(=O)(=O)c3ccccc3C(F)(F)F)c2[nH]1` came in with a melting point of 138 to 139 °C.

Consider `CN1C(=O)C(c2ccccc2)NC(=O)/C1=C/c1c[nH]c2ccccc12` (centres undefined), for which the melting point was in the range of 120 to 123 °C.

With `CCCCC1=CC(O)(C(Br)Br)N(c2ccccc2)C1=O` (centres undefined), the melting point was in the range of 96 to 98 °C.

The compound `CC(C)(C)OC(=O)N1CCCC(c2nc3c(N[C@H]4[C@@H](C(N)=O)[C@@H]5C=C[C@H]4C5)ccnc3[nH]2)C1` (some centres undefined) showed a melting point of 222 to 225 °C.

`CN(Cc1ncco1)C1CCCN(C(=O)c2ccc(Nc3nccc(Nc4ccc(F)cc4)n3)cc2)C1` (centres undefined) showed a melting point of 155 to 157 °C.

Regarding `COc1ccc(CCNC(=O)N(C)O)cc1OCc1ccccc1`, the melting point was in the range of 125 to 126 °C.

`CC(C)(C)OC(=O)N[C@H]1CC[C@H](CCOS(C)(=O)=O)CC1` gave a melting point of 116 °C.

For the compound `O=C(CO/N=C/c1ccc([N+](=O)[O-])c(CO)c1)N1CCN(CC2CCCCC2)CC1`, the melting point stood at 170 °C.

Turning to `C(=C\c1ncno1)/c1ccccc1`, the melting point lay in the range of 53 to 55 °C.

Compound `CCCCc1nc2c(N)nc3ccccc3c2n1CC1(O)CCCCC1` showed a melting point of 218 to 220 °C.

For the compound `ON=C1CCCc2c1ccc1ccccc21`, the melting point was 174 to 175 °C.

Consider `CCn1c(C)c(C(C)=O)c(N=Cc2ccccc2)c1-c1ccccc1`, for which the melting point was 139 to 141 °C.

The compound `CCNc1ccc(Cl)nc1` registered a melting point of 65 to 66 °C.

The compound `CSc1cn(C)c2ccsc2c1=O` displayed a melting point of 171 to 174 °C.

As for `O=C(NCCCCSc1ccncc1)c1ccccc1O`, the melting point lay in the range of 83 to 85 °C.

Compound `Cc1ccc(C(=O)n2c3c(c4cc(C)ccc42)CC(C(=O)O)CC3)cc1` (centres undefined) came in with a melting point of 200 to 203 °C.

As to `CCOC(=O)c1c[nH]c(C2CCN(CCC(CN(C)C(=O)c3ccccc3)c3ccc(Cl)c(Cl)c3)CC2)n1` (centres undefined), the melting point fell in the range of 96 to 102 °C.

With `CC(=O)c1ccc(-n2c(-c3sc(NC(=O)c4ccc(C)cc4)nc3-c3ccccc3)nc3ccccc3c2=O)cc1`, the melting point was in the range of 266 to 267 °C.

`CC(=O)Nc1ccc(S(=O)(=O)Nc2ccc(S(=O)(=O)C=CC#N)cc2)cc1` came in with a melting point of 204 to 205 °C.

Regarding `COc1ccc(C(=O)Nc2ccc(Cl)c(Cl)c2)cc1NC(=S)Nc1ccc(S(N)(=O)=O)cc1`, the melting point is 190 to 193 °C.

The compound `O=C(c1ccc(Cl)cc1)C(F)CCCl` (centres undefined) came in with a melting point of 53 °C.

`COc1ccc(OS(=O)(=O)c2ccc(C)cc2)c(C(C)C)c1` returned a melting point of 85.1 °C.

Compound `O=C(O)COc1cc2c(c(Cl)c1Cl)C(O)C1(CCCC1)C2` (centres undefined) registered a melting point of 135 °C.

`Nc1ccccc1C(O)c1cc(C(F)(F)F)nc2c(C(F)(F)F)cccc12` (centres undefined) yielded a melting point of 146 °C.

`O=c1ccn(CCO)c(C(O)c2ccccc2F)c1O` (centres undefined) yielded a melting point of 177 to 178 °C.

`COc1cc(CC#N)ccc1OCC#Cc1ccccc1` yielded a melting point of 74 to 75 °C.

Compound `O=[N+]([O-])c1ccc(C(Cl)=NNc2ccccc2)cc1` displayed a melting point of 157 to 158 °C.

Consider `CCCN1CCN(c2ccc(C(C)=O)cc2)CC1`, for which the melting point fell in the range of 68 to 70 °C.

As for `CS(=O)(=O)c1ccc(-c2nn3c(-c4ccccc4)c(-c4ccccc4)oc3c2-c2ccc(F)cc2)cc1`, the melting point lay in the range of 228 to 229 °C.

With `O=C1OC2(CCN(C(=O)Nc3cnc(-c4ccc(O)cc4)cn3)CC2)c2ccccc21`, the melting point lay within 263 to 265 °C.

`CNc1ccc(-c2ncn(-c3ccc(C(F)(F)F)cc3)n2)cc1`: the melting point lay within 106 to 113 °C.

For the compound `COC(=O)Cc1oc2ccc(Cl)cc2c1-c1ccccc1C`, the melting point lay within 135 to 136 °C.
